Assay results as given in ChEMBL document CHEMBL4190367, “Heterocyclic pharmacochemistry of new rhinovirus antiviral agents: A combined computational and experimental study” (Eur J Med Chem, 2017).

Assays:
[1] = Selectivity index, ratio of CC50 for un-infected human HeLa Rh cells to EC50 for Human rhinovirus B14 infected in human HeLa Rh cells; format: toxicity, cell-based; conditions: read-out: Ratio CC50/EC50
[2] = Cytotoxicity in un-infected human HeLa Rh cells assessed as reduction in cell viability incubated for 3 days by MTT assay; format: cell-based
rhinovirus B14 = experiment: Antiviral activity against Human rhinovirus B14 infected in human HeLa Rh cells assessed as protection against virus induced cytopathic effect after 3 days in presence of 10% inactivated FBS by MTT assay; format: functional, organism-based; conditions: Rhinovirus B, 72 h

Compound	selectivity ratio [1]	CC50 at 72 h [2]	EC50 (rhinovirus B14)
COc1cc(CC(O)c2ccc(C#N)cc2)c([N+](=O)[O-])cc1OC (stereo not drawn)	77.3	178 µM	2.3 µM
COc1cc(C[C@H](O)c2ccc(-n3cccn3)cc2)c([N+](=O)[O-])cc1OC	> 774	> 271 µM	0.35 µM
COc1cc(CC(O)c2ccc(-c3cnn(C)c3)cc2)c([N+](=O)[O-])cc1OC (stereo not drawn)	–	17.4 µM	> 270 µM
COc1cc(C[C@H](O)c2ccc(C#N)cc2)c([N+](=O)[O-])cc1OC	685	178 µM	0.26 µM
COc1cc(CC(O)c2ccncc2)c([N+](=O)[O-])cc1OC (stereo not drawn)	> 77	> 263 µM	3.4 µM
COc1cc(CC(O)c2ccc(N3CCCC3)cc2)c([N+](=O)[O-])cc1OC (stereo not drawn)	> 139	> 269 µM	1.94 µM
COc1cc(C[C@@H](O)c2ccc(-n3cccn3)cc2)c([N+](=O)[O-])cc1OC	> 6.5	> 271 µM	42 µM
COc1cc(CC(O)c2ccc(N3CCNCC3)cc2)c([N+](=O)[O-])cc1OC (stereo not drawn)	–	> 258 µM	238 µM
COc1cc(C[C@@H](O)c2ccc(-n3cncn3)cc2)c([N+](=O)[O-])cc1OC	–	> 271 µM	> 50 µM
COc1cc(C[C@H](O)c2cccnc2)c([N+](=O)[O-])cc1OC	> 339	> 200 µM	0.59 µM
COc1cc(CC(O)c2ccc(C(F)(F)F)cc2)c([N+](=O)[O-])cc1OC (stereo not drawn)	–	49.7 µM	2 µM
COc1cc(CC(O)c2ccc(-c3ccsc3)cc2)c([N+](=O)[O-])cc1OC (stereo not drawn)	21.3	11.5 µM	0.54 µM
COc1cc(CC(O)c2ccc(-c3cc(C(F)(F)F)nn3C)cc2)c([N+](=O)[O-])cc1OC (stereo not drawn)	–	12.1 µM	> 222 µM
COc1cc(C[C@@H](O)c2ccc(-c3cn[nH]c3)cc2)c([N+](=O)[O-])cc1OC	> 7.74	> 271 µM	35.6 µM
COc1cc(C[C@H](O)c2ccncc2)c([N+](=O)[O-])cc1OC	> 172	> 200 µM	1.16 µM
COc1cc(C[C@H](O)c2ccc(C(F)(F)F)cc2)c([N+](=O)[O-])cc1OC	90.8	41.8 µM	0.46 µM
COc1cc(CC(O)c2ccc(-c3cn[nH]c3)cc2)c([N+](=O)[O-])cc1OC (stereo not drawn)	> 356	> 271 µM	0.76 µM

Compound	selectivity ratio [1]	CC50 at 72 h [2]	EC50 (rhinovirus B14)
COc1cc(CC(O)c2ccc(-c3ccco3)cc2)c([N+](=O)[O-])cc1OC (stereo not drawn)	52.5	32 µM	0.61 µM
COc1cc(C[C@@H](O)c2cccnc2)c([N+](=O)[O-])cc1OC	–	> 200 µM	> 200 µM
COc1cc(C[C@@H](O)c2ccncc2)c([N+](=O)[O-])cc1OC	–	55.2 µM	> 200 µM
CCOC(=O)N1CCN(c2ccc(C(O)Cc3cc(OC)c(OC)cc3[N+](=O)[O-])cc2)CC1 (stereo not drawn)	1.9	33.8 µM	18.1 µM
COc1cc(CC(O)c2ccc(-n3cncn3)cc2)c([N+](=O)[O-])cc1OC (stereo not drawn)	> 295	> 271 µM	0.92 µM
COc1cc(CC(O)c2ccc(-n3cccn3)cc2)c([N+](=O)[O-])cc1OC (stereo not drawn)	> 467	> 271 µM	0.58 µM
COc1cc(CC(O)c2ccc(-c3cncnc3)cc2)c([N+](=O)[O-])cc1OC (stereo not drawn)	> 122	> 271 µM	2.22 µM
COc1cc(C[C@@H](O)c2ccc(C#N)cc2)c([N+](=O)[O-])cc1OC	16.8	178 µM	10.6 µM
COc1cc(C[C@@H](O)c2ccc(C(F)(F)F)cc2)c([N+](=O)[O-])cc1OC	–	13.9 µM	> 200 µM
COc1cc(C[C@H](O)c2ccc(-n3cncn3)cc2)c([N+](=O)[O-])cc1OC	> 797	> 271 µM	0.34 µM
COc1cc(C[C@H](O)c2ccc(-c3cn[nH]c3)cc2)c([N+](=O)[O-])cc1OC	> 1080	> 271 µM	0.25 µM
COc1cc(CC(O)c2ccc(N3CCC(C)CC3)cc2)c([N+](=O)[O-])cc1OC (stereo not drawn)	> 131	> 250 µM	1.91 µM
COc1cc(CC(O)c2ccc(N3CCOCC3)cc2)c([N+](=O)[O-])cc1OC (stereo not drawn)	16.5	193 µM	11.7 µM
COc1cc(CC(O)c2ccc(N3CCCCC3)cc2)c([N+](=O)[O-])cc1OC (stereo not drawn)	28.7	53.9 µM	1.88 µM
COc1cc(CC(O)c2cccnc2)c([N+](=O)[O-])cc1OC (stereo not drawn)	> 131	> 263 µM	2 µM
COc1cc(CC(O)c2ccc(-c3ccc(C(F)(F)F)nc3)cc2)c([N+](=O)[O-])cc1OC (stereo not drawn)	16.9	152 µM	8.96 µM
Cc1cc(CCCOc2c(C)cc(-c3noc(C(F)(F)F)n3)cc2C)on1 [PLECONARIL]	> 437	> 131 µM	–
